Data set [1] concerns all tested Candida strains. In kind it is cell-based. The settings on record: 4 h.
The subject of data set [2] is L929 cells. In words: Cytotoxic activity (WST-1 cell viability assay). The format is cell-based, mouse. The settings on record: 24 h treatment, WST-1, OD 460 nm. On the procedure:
The cytotoxicity of hybrid peptides was evaluated in mouse […] cells (L929, Korean Collection for Type Cultures, KCTC). L929 cells in RPMI1640-10% FBS (100 μL, 3 × 10^5 cells/ml) were seeded in 96-well plates and cultured at 37°C for 24 h in a 5% CO2 incubator. The L929 cells were treated with peptides at predetermined concentrations for 24 h, and 10 μl of EZ-Cytox Cell Viability Assay solution WST-1® (Daeil Lab Service, Korea) were added to each well. Three hours later, the cytotoxicity of peptides against L929 cells was assessed by measuring the optical density at 460 nm using a Perkin Elmer 2030 Reader (Victor X3).
(In general: Tetrazolium dyes change colour on reduction, which living cells bring about.)

In brackets after ≈: the same amount, converted by molar mass. Where a SMILES comes first, the peptide text is derived from it. Bridges are numbered along the chain shown (N, C = ends). Roman numbers before positions name the chains, in order.

Compound `CC(C)C[C@H](NC(=O)[C@@H](N)Cc1c[nH]c2ccccc12)C(=O)N[C@@H](CC(N)=O)C(=O)N[C@@H](C)C(=O)N[C@@H](CCCCN)C(=O)N[C@@H](CCCNC(=N)N)C(=O)N[C@@H](Cc1c[nH]cn1)C(=O)N[C@@H](Cc1c[nH]cn1)C(=O)NCC(=O)N[C@@H](Cc1ccc(O)cc1)C(=O)N[C@@H](CCCCN)C(=O)N[C@@H](CSSC[C@H](NC(=O)[C@H](CCCCN)NC(=O)[C@H](Cc1ccc(O)cc1)NC(=O)CNC(=O)[C@H](Cc1c[nH]cn1)NC(=O)[C@H](Cc1c[nH]cn1)NC(=O)[C@H](CCCNC(=N)N)NC(=O)[C@H](CCCCN)NC(=O)[C@H](C)NC(=O)[C@H](CC(N)=O)NC(=O)[C@H](CC(C)C)NC(=O)[C@@H](N)Cc1c[nH]c2ccccc12)C(=O)N[C@@H](CCCCN)C(=O)N[C@@H](Cc1ccccc1)C(=O)N[C@@H](Cc1c[nH]cn1)C(N)=O)C(=O)N[C@@H](CCCCN)C(=O)N[C@@H](Cc1ccccc1)C(=O)N[C@@H](Cc1c[nH]cn1)C(N)=O` [di-WP2] (I: H-WLNAKRHHGYKCKFH-NH2 / II: H-WLNAKRHHGYKCKFH-NH2; disulfide I:12-II:12 (inferred); N-terminus assumed) displayed an MIC values in data set [1] of 2 to 4 µg/mL. `CC(C)C[C@H](NC(=O)CNC(=O)[C@H](Cc1c[nH]cn1)NC(=O)[C@H](Cc1c[nH]cn1)NC(=O)[C@H](CC(C)C)NC(=O)[C@H](CC(C)C)NC(=O)[C@H](C)NC(=O)[C@H](CC(N)=O)NC(=O)[C@H](CC(C)C)NC(=O)[C@@H](N)Cc1c[nH]c2ccccc12)C(=O)N[C@@H](CC(N)=O)C(=O)N[C@@H](CSSC[C@H](NC(=O)[C@H](CC(N)=O)NC(=O)[C@H](CC(C)C)NC(=O)CNC(=O)[C@H](Cc1c[nH]cn1)NC(=O)[C@H](Cc1c[nH]cn1)NC(=O)[C@H](CC(C)C)NC(=O)[C@H](CC(C)C)NC(=O)[C@H](C)NC(=O)[C@H](CC(N)=O)NC(=O)[C@H](CC(C)C)NC(=O)[C@@H](N)Cc1c[nH]c2ccccc12)C(=O)N[C@@H](C)C(=O)N[C@@H](CCCCN)C(=O)NCC(=O)N[C@H](C(=O)N[C@@H](CC(C)C)C(=O)N[C@@H](C)C(N)=O)C(C)C)C(=O)N[C@@H](C)C(=O)N[C@@H](CCCCN)C(=O)NCC(=O)N[C@H](C(=O)N[C@@H](CC(C)C)C(=O)N[C@@H](C)C(N)=O)C(C)C` [di-18Hc, reference compound] (I: H-WLNALLHHGLNCAKGVLA-NH2 / II: H-WLNALLHHGLNCAKGVLA-NH2; disulfide I:12-II:12 (inferred); N-terminus assumed) yielded a CC50 in data set [2] of 72.385 µg/mL (≈ 18.8 µM).

In the case of `CC(C)C[C@H](NC(=O)CNC(=O)[C@H](Cc1c[nH]cn1)NC(=O)[C@H](Cc1c[nH]cn1)NC(=O)[C@H](CCCNC(=N)N)NC(=O)[C@H](CCCCN)NC(=O)[C@H](C)N)C(=O)N[C@@H](CC(N)=O)C(=O)N[C@@H](CSSC[C@H](NC(=O)[C@H](CC(N)=O)NC(=O)[C@H](CC(C)C)NC(=O)CNC(=O)[C@H](Cc1c[nH]cn1)NC(=O)[C@H](Cc1c[nH]cn1)NC(=O)[C@H](CCCNC(=N)N)NC(=O)[C@H](CCCCN)NC(=O)[C@H](C)N)C(=O)N[C@@H](C)C(=O)N[C@@H](CCCCN)C(=O)N[C@@H](Cc1ccccc1)C(=O)N[C@@H](Cc1c[nH]cn1)C(N)=O)C(=O)N[C@@H](C)C(=O)N[C@@H](CCCCN)C(=O)N[C@@H](Cc1ccccc1)C(=O)N[C@@H](Cc1c[nH]cn1)C(N)=O` [di-PH2] (I: H-AKRHHGLNCAKFH-NH2 / II: H-AKRHHGLNCAKFH-NH2; disulfide I:9-II:9 (inferred); N-terminus assumed), in data set [1], the MIC values lay in the range of 1 to 2 µg/mL.

By CC50 is commonly meant the concentration giving 50% cytotoxicity. A high value points to lower toxicity to the cells.

(Values after paper PMC4769088, “Antifungal Activity and Action Mechanism of Histatin 5-Halocidin Hybrid Peptides against Candida ssp” (PLoS ONE, 2016).)
